{"source": "patent US20210337847A1", "about": "“Mint Flavor Compositions” (The Procter & Gamble Company, priority 2020, published 2021)", "key": {"[1]": {"assay": "Comparison of cooling attributes of (−)-menthol and racemic menthol in a toothpaste (CREST Cavity formulation)", "type": "in vivo", "settings": "for Potency compared to L-Menthol / Time Point at Maximum Cooling / Maximum Cooling (0-60 scale) / Maximum Longevity: CREST Cavity formulation; for Maximum Cooling (0-60 scale): 60 = greatest amount of cooling, 0 = least; for Maximum Longevity: longevity of cooling; for EC 50: concentration of coolant giving 50% of its maximal cooling", "description": "The following data helps support the use of racemic menthol to reduce costs of mint flavor compositions herein described. From internal unpublished research, Table B compares replacing (−)-menthol with a racemic menthol in a 1:1 in a toothpaste formulation. Such a direct replacement is not preferred given the reduced cooling profile and olfactory differences; however, a portion of L-menthol is preferably replaced by racemic-menthol to gain cost efficiency while minimizing impact to the overall mint flavor profiles.\nTable B is a comparison of attributes between (-)-menthol and racemic menthol in a toothpaste context (using CREST Cavity formulation).\nThis value represents the concentration of a coolant where 50% of its maximal cooling is observed."}, "[2]": {"assay": "Expert sensory testing of racemic menthol versus (−)-menthol in a toothpaste formulation (CREST Cavity) with a standard spearmint flavor", "type": "in vivo", "experimental": "In separate, unpublished internal experiments, perceptual experiences of racemic menthol are quantified via expert sensory testing. The use of a standard spearmint flavor (minimizing extra menthol contribution) compared racemic menthol to (−)-menthol in a toothpaste formulation (CREST Cavity). There are several sensory observations taken from these experiments. […] These aromatic notes appear during brushing and disappear after 5-10 minutes post expectoration and are more pronounced as concentrations increase."}}}
{"smiles": "CC1CCC(C(C)C)C(O)C1", "note": "(racemic) [Racemic Menthol, racemic menthol]", "values": [{"measurement": "Potency compared to L-Menthol", "setting": "[1]", "value": "~0.65-0.7x"}, {"measurement": "Time Point at Maximum Cooling", "setting": "[1]", "value": "~1", "unit": "min"}, {"measurement": "Maximum Cooling (0-60 scale)", "setting": "[1]", "value": 35}, {"measurement": "Maximum Longevity", "setting": "[1]", "value": "Up to 20 minutes"}, {"measurement": "EC 50", "setting": "[1]", "value": "1,250 to 1,500 parts per million"}, {"measurement": "Less potent than (−)-menthol for cooling", "setting": "[2]", "value": "25-30%"}]}
{"smiles": "CC1CCC(C(C)C)C(O)C1", "note": "(single isomer, unassigned; (-)) [(−)-Menthol, (−)-menthol]", "values": [{"measurement": "Potency compared to L-Menthol", "setting": "[1]", "value": 1, "unit": "x"}, {"measurement": "Time Point at Maximum Cooling", "setting": "[1]", "value": "~5", "unit": "min"}, {"measurement": "Maximum Cooling (0-60 scale)", "setting": "[1]", "value": 40}, {"measurement": "Maximum Longevity", "setting": "[1]", "value": "Up to 25 minutes"}, {"measurement": "EC 50", "setting": "[1]", "value": "1,750 to 2,250 parts per million"}]}
